Measurements as given in ChEMBL document CHEMBL4118088, “C5-C6 Carbocyclic-Fused Iminothiadiazine Dioxides as BACE Inhibitors, Their Compositions, and Their Use” (ACS Med Chem Lett, 2017).
pKi: −log10 of the molar value.

What was measured:
[1] = target: Beta-secretase 1 (Homo sapiens, UniProt P56817); experiment: Binding affinity to human BACE1 catalytic domain using QSY7-APPswe-Eu as substrate preincubated for 30 mins followed by substrate addition measured after 1.5 hrs by HTRF assay
[2] = target: T1, Beta-secretase 2 (Homo sapiens, UniProt Q9Y5Z0); experiment: Binding affinity to human autoBACE2 using QSY7-APPswe-Eu as substrate preincubated for 30 mins followed by substrate addition measured after 90 mins by HTRF assay
T1 sequence (Q9Y5Z0 whole entry): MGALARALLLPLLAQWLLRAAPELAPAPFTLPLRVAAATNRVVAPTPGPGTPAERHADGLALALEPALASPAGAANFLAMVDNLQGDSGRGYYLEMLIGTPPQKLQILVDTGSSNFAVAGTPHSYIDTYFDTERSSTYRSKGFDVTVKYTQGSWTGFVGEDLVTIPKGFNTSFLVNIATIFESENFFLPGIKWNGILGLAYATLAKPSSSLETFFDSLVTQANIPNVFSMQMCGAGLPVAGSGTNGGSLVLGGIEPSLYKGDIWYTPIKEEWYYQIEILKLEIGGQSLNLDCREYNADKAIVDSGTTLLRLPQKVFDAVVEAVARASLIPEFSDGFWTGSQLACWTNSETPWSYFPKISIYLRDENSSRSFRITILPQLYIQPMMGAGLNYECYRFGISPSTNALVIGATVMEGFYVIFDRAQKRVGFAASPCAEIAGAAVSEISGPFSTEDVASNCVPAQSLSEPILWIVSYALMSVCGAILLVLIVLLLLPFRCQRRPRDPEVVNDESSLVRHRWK

Beta-secretase 1, sequence (P56817 whole entry, the tested form may be a part): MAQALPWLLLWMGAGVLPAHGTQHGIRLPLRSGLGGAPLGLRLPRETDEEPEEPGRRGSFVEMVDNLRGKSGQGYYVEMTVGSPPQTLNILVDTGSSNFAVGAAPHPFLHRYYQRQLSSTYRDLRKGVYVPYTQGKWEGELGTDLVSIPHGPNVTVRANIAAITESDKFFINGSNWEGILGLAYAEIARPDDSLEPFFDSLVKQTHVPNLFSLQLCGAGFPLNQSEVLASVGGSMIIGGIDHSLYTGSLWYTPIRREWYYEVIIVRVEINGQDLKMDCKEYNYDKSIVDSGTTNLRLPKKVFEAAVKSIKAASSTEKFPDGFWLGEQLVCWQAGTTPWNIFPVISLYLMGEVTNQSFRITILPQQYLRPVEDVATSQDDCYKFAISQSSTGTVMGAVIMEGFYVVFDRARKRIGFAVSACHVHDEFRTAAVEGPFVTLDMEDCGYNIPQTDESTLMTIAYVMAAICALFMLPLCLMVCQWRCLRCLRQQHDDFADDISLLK

pKi [1]	pKi [2]	Structure (SMILES)
6.69	6.70	COc1cnc2c(C(=O)Nc3ccc(F)c([C@]45CCC[C@H]4S(=O)(=O)N(C)C(=N)N5)c3)ccnc2c1
7.44	8.05	COc1cnc2c(C(=O)Nc3ccc(F)c([C@]45CCC[C@H]4S(=O)(=O)N(C)C(=N)N5)c3)nccc2n1
7.51	8.00	COc1cnc2c(C(=O)Nc3ccc(F)c([C@]45CCC[C@H]4S(=O)(=O)N(C)C(=N)N5)c3)nccc2c1
8.40	9.30	CN1C(=N)N[C@@]2(c3cc(NC(=O)c4nccc5cc(Br)cnc45)ccc3F)CCC[C@H]2S1(=O)=O
